Experimental data taken from ChEMBL document CHEMBL3407349, “The discovery of Polo-like kinase 4 inhibitors: identification of (1R,2S).2-(3-((E).4-(((cis).2,6-dimethylmorpholino)methyl)styryl). 1H.indazol-6-yl)-5'-methoxyspiro[cyclopropane-1,3'-indolin]-2'-one (CFI-400945) as a potent, orally active antitumor agent” (J Med Chem, 2015).

Assays:
[1] = Growth inhibition of human SKBR3 cells after 5 days by SRB assay; format: functional; conditions: SK-BR-3, 120 h
[2] = target: T1, Cytochrome P450 1A2 (Homo sapiens, UniProt P05177); experiment: Inhibition of CYP1A2 (unknown origin) by fluorescence assay; format: ADME
T1 sequence (P05177 whole entry): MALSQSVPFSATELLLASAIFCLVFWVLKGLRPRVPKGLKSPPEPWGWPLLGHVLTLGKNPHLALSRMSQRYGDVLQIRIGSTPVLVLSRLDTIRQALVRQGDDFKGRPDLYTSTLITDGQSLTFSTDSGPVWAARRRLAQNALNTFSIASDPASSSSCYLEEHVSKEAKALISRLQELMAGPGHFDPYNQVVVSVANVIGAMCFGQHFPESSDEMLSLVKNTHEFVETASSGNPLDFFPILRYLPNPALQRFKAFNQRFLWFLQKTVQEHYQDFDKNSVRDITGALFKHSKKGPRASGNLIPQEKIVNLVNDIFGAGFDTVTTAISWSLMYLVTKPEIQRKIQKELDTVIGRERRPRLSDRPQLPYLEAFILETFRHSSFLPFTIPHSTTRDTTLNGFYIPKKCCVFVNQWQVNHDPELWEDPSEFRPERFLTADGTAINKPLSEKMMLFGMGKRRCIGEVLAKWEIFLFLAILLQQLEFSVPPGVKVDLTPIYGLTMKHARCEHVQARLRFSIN

[3] = Half life in mouse liver microsomes; conditions: microsomes
[4] = Oral bioavailability in Sprague-Dawley rat at 5 mg/kg; format: ADME, organism-based; conditions: in vivo
[5] = test system: MDA-MB-468; experiment: Antitumor activity against human MDA-MB-468 cells xenografted in CB-17 SCID mouse assessed as tumor growth inhibition at 3 mg/kg, po qd administered for 21 days; format: functional; conditions: MDA-MB-468, 504 h, read-out: TGI
[6] = Growth inhibition of human HCT116 cells after 5 days by SRB assay; format: functional; conditions: HCT-116, 120 h
[7] = AUC(infinity) in beagle dog at 5 mg/kg, po; format: ADME, organism-based, Canis lupus familiaris; design: time infinity, dose 5 mg/kg, route oral; conditions: plasma
[8] = target: Cytochrome P450 2D6 (Homo sapiens, UniProt P10635); experiment: Inhibition of CYP2D6 (unknown origin) by fluorescence assay; format: ADME
[9] = Half life in dog liver microsomes; conditions: microsomes
[10] = test system: HCC1954; experiment: Growth inhibition of human HCC1954 cells after 5 days by SRB assay; format: functional; conditions: Homo sapiens, HCC1954, 120 h
[11] = Half life in rat liver microsomes; conditions: microsomes
[12] = target: Cytochrome P450 2C9 (Homo sapiens, UniProt P11712); experiment: Inhibition of CYP2C9 (unknown origin) by fluorescence assay
[13] = Antitumor activity against human SW620 cells xenografted in CB-17 SCID mouse assessed as tumor growth inhibition at 3 mg/kg, po qd administered for 21 days; format: functional; conditions: SW-620, 504 h, read-out: TGI
[14] = Half life in Sprague-Dawley rat at 1 mg/kg, iv; format: ADME, organism-based; design: dose 1 mg/kg, route intravenous; conditions: in vivo
[15] = test system: MDA-MB-468; experiment: Antitumor activity against human MDA-MB-468 cells xenografted in CB-17 SCID mouse assessed as tumor growth inhibition at 9.4 mg/kg, po qd administered for 21 days; format: functional; conditions: MDA-MB-468, 504 h, read-out: TGI
[16] = test system: MDA-MB-468; experiment: Growth inhibition of human MDA-MB-468 cells after 5 days by SRB assay; format: functional; conditions: Homo sapiens, MDA-MB-468, 120 h
[17] = Growth inhibition of human OVCAR3 cells after 5 days by SRB assay; format: functional; conditions: OVCAR-3, 120 h
[18] = Growth inhibition of human BT20 cells after 5 days by SRB assay; format: functional; conditions: BT-20, 120 h
[19] = Growth inhibition of human HMEC cells after 5 days by SRB assay; format: cell-based; conditions: HMEC cells
[20] = Growth inhibition of human COLO205 cells after 5 days by SRB assay; format: functional; conditions: COLO 205, 120 h
[21] = test system: MCF7; experiment: Growth inhibition of human MCF7 cells after 5 days by SRB assay; format: functional; conditions: Homo sapiens, MCF7, 120 h
[22] = Antitumor activity against human HCT116 cells xenografted in athymic CD-1 nude mouse assessed as tumor growth inhibition at MTD, po qd administered 1-on/3-off schedule up to day 21; format: functional, HCT-116
[23] = test system: A549; experiment: Antitumor activity against human A549 cells xenografted in CB-17 SCID mouse assessed as tumor growth inhibition at 3 mg/kg, po qd administered for 21 days; format: functional; conditions: A549, 504 h, read-out: TGI
[24] = Antitumor activity against human SW620 cells xenografted in CB-17 SCID mouse assessed as tumor growth inhibition at 9.4 mg/kg, po qd administered for 21 days; format: functional; conditions: SW-620, 504 h, read-out: TGI
[25] = target: Cytochrome P450 2C19 (Homo sapiens, UniProt P33261); experiment: Inhibition of CYP2C19 (unknown origin) by fluorescence assay
[26] = test system: A549; experiment: Growth inhibition of human A549 cells after 5 days by SRB assay; format: functional; conditions: A549, 120 h
[27] = Cmax in athymic CD1 nude mouse at 25 mg/kg, po by LC/MS/MS analysis; format: ADME, organism-based; design: dose 25 mg/kg, route oral; conditions: in vivo
[28] = Growth inhibition of human CAL51 cells after 5 days by SRB assay; format: functional; conditions: CAL-51, 120 h
[29] = Toxicity in po dosed athymic CD-1 nude mouse xenografted with human HCT116 cells administered qd 1-on/3-off schedule up to day 21; format: organism-based, HCT-116; conditions: CD-1 athymic nude, in vivo
[30] = Oral bioavailability in beagle dog at 5 mg/kg; format: ADME, organism-based, Canis lupus familiaris; conditions: in vivo
[31] = test system: MDA-MB-231; experiment: Growth inhibition of human MDA-MB-231 cells after 5 days by SRB assay; format: functional; conditions: Homo sapiens, MDA-MB-231, 120 h
[32] = Half life in beagle dog at 1 mg/kg, iv; format: ADME, organism-based, Canis lupus familiaris; design: dose 1 mg/kg, route intravenous; conditions: in vivo
[33] = AUC(infinity) in Sprague-Dawley rat at 1 mg/kg, iv; format: ADME, organism-based; design: time infinity, dose 1 mg/kg, route intravenous; conditions: plasma
[34] = target: T2, Cytochrome P450 3A4 (Homo sapiens, UniProt P08684); experiment: Inhibition of CYP3A4 (unknown origin) using BFC as substrate by fluorescence assay
[35] = Half life in human liver microsomes; conditions: microsomes
[36] = test system: SW-620; experiment: Growth inhibition of human SW620 cells after 5 days by SRB assay; format: functional; conditions: SW-620, 120 h
[37] = AUC in athymic CD1 nude mouse at 25 mg/kg, po by LC/MS/MS analysis; format: ADME, organism-based; design: dose 25 mg/kg, route oral; conditions: plasma
[38] = target: T2, Cytochrome P450 3A4; experiment: Inhibition of CYP3A4 (unknown origin) using DBF as substrate by fluorescence assay
[39] = AUC(infinity) in beagle dog at 1 mg/kg, iv; format: ADME, organism-based, Canis lupus familiaris; design: time infinity, dose 1 mg/kg, route intravenous; conditions: plasma
[40] = AUC(infinity) in Sprague-Dawley rat at 5 mg/kg, po; format: ADME, organism-based; design: dose 5 mg/kg, route oral, time infinity; conditions: plasma
[41] = test system: Mus musculus; experiment: Toxicity in CB-17 SCID mouse xenografted with human A549 cells assessed as death at 9.4 mg/kg, po qd administered for 21 days; format: organism-based; design: dose 9.4 mg/kg, route oral; conditions: in vivo, 504 h

T2 sequence (P08684 whole entry): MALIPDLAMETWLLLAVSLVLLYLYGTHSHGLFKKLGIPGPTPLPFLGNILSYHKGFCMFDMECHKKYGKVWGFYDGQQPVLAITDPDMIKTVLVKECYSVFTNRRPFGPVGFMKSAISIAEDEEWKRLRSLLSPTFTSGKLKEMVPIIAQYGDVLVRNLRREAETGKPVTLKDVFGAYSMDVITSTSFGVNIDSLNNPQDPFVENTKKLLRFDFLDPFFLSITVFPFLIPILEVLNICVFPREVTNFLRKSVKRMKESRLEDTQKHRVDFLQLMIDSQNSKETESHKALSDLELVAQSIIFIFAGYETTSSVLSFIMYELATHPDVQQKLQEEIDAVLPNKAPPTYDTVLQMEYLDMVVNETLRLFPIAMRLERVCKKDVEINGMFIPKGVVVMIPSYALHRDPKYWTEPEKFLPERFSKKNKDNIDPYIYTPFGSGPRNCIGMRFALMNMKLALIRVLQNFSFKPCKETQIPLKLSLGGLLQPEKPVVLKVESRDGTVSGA
Chain of Cytochrome P450 2C9 (P11712 whole entry): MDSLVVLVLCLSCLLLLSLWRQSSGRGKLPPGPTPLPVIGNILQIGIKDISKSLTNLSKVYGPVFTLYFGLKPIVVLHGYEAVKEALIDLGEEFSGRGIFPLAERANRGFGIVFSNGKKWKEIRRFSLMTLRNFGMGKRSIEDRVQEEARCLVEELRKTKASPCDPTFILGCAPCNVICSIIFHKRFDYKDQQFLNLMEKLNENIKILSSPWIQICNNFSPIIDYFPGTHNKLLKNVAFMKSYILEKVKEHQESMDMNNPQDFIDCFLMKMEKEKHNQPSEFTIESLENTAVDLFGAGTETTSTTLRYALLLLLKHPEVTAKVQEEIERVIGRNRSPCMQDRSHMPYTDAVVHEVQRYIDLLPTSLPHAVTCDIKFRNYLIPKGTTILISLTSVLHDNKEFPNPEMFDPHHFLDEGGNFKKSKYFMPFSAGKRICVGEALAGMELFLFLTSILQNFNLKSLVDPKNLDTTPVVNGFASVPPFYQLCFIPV
Chain of Cytochrome P450 2C19 (P33261 whole entry): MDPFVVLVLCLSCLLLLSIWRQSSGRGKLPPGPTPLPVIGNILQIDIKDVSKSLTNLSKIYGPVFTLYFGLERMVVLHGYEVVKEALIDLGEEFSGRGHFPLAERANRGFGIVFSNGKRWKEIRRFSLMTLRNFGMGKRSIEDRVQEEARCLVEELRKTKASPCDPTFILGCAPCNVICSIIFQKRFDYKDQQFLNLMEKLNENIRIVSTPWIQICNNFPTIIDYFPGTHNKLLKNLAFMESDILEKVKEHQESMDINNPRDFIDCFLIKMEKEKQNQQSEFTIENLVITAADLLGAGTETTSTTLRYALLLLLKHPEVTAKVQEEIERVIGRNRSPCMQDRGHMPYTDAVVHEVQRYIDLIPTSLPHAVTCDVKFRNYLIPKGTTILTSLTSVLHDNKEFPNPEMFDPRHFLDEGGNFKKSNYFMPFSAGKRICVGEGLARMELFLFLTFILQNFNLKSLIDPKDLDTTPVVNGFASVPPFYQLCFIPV
Chain of Cytochrome P450 2D6 (P10635 whole entry): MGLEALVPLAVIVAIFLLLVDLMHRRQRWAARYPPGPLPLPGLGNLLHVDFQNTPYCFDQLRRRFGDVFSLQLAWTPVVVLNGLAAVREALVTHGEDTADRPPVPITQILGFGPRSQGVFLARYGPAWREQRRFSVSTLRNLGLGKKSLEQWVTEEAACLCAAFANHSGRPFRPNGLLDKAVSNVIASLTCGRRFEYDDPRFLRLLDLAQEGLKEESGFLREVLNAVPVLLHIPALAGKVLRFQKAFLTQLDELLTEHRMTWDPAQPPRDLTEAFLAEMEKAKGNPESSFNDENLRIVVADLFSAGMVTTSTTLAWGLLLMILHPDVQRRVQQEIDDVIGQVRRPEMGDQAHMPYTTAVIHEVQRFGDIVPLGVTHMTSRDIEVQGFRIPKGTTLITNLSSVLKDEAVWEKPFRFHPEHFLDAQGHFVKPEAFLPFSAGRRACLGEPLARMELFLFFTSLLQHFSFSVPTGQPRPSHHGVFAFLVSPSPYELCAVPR

**Q.** With `COc1ccc2c(c1)[C@]1(C[C@H]1c1ccc3c(/C=C/c4ccc(CN5CCOCC5)cc4)n[nH]c3c1)C(=O)N2C` as the compound, how does the GI50 [1] read?
**A.** 6500 nM

**Q.** And the “inhibition (INH)” value [2]?
**A.** Not Active

**Q.** What about the half-life [3] of the same compound?
**A.** 24 min

**Q.** What about the bioavailability [4] of the same compound?
**A.** 25%

**Q.** And the inhibition in vivo at 3 mg/kg [5]?
**A.** 61%

**Q.** What about the GI50 [6] of the same compound?
**A.** 5 nM

**Q.** And the AUC(0-inf) [7]?
**A.** 1030 ng·h/mL

**Q.** And the “inhibition (INH)” value [8]?
**A.** Not Active

**Q.** And the half-life [9]?
**A.** 13 min

**Q.** What about the GI50 [10] of the same compound?
**A.** < 10 nM

**Q.** What about the half-life [11] of the same compound?
**A.** 6.4 min

**Q.** What about the IC50 [12] of the same compound?
**A.** 1000 nM

**Q.** What about the inhibition in vivo at 3 mg/kg [13] of the same compound?
**A.** 47%

**Q.** And the half-life [14]?
**A.** 78 min

**Q.** What about the inhibition in vivo at 9.4 mg/kg [15] of the same compound?
**A.** 96%

**Q.** And the GI50 [16]?
**A.** < 10 nM

**Q.** What about the GI50 [17] of the same compound?
**A.** 7 nM

**Q.** What about the GI50 [18] of the same compound?
**A.** 55 nM

**Q.** What about the GI50 at 120 h [19] of the same compound?
**A.** > 30000 nM

**Q.** And the GI50 [20]?
**A.** 7 nM

**Q.** What about the GI50 [21] of the same compound?
**A.** < 10 nM

**Q.** And the TGI [22]?
**A.** 90%

**Q.** And the inhibition in vivo at 3 mg/kg [23]?
**A.** 46%

**Q.** And the inhibition in vivo at 9.4 mg/kg [24]?
**A.** 77%

**Q.** What about the IC50 [25] of the same compound?
**A.** 1000 nM

**Q.** And the GI50 [26]?
**A.** 4 nM

**Q.** And the Cmax [27]?
**A.** 5900 ng/mL

**Q.** What about the GI50 [28] of the same compound?
**A.** 110 nM

**Q.** What about the MTD at 21 days [29] of the same compound?
**A.** 39 mg/kg

**Q.** What about the bioavailability [30] of the same compound?
**A.** 32%

**Q.** What about the GI50 [31] of the same compound?
**A.** 20000 nM

**Q.** And the half-life [32]?
**A.** 180 min

**Q.** What about the AUC(0-inf) [33] of the same compound?
**A.** 553 ng·h/mL

**Q.** And the IC50 [34]?
**A.** 20000 nM

**Q.** What about the half-life [35] of the same compound?
**A.** 37 min

**Q.** What about the GI50 [36] of the same compound?
**A.** 600 nM

**Q.** And the AUC [37]?
**A.** 17000 ng·h/mL

**Q.** And the IC50 [38]?
**A.** 6000 nM

**Q.** What about the AUC(0-inf) [39] of the same compound?
**A.** 648 ng·h/mL

**Q.** What about the AUC(0-inf) [40] of the same compound?
**A.** 688 ng·h/mL

**Q.** What about the Activity [41] of the same compound?
**A.** Toxic
